Where “and” joins values, the source holds several entries; their conditions need not be identical. Equal entries are not always repeated.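 48-hour exposure; five concentrations; linearly interpolated endpoints. GI50 is the concentration that inhibits growth by half. TGI: total growth inhibition.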

Among the test systems are SF-295 CNS; SNB-19 CNS; SF-268 CNS; OVCAR-4 ovarian; OVCAR-3 ovarian; PC-3 prostate; CAKI-1 renal; DU-145 prostate; SK-MEL-2 melanoma; LOX IMVI melanoma.
Assay in all cases: growth of human tumour cells (NCI), 48 h

Turning to `CC(C)[C@H](O)C(=O)N[C@H]1Cc2ccc3c(c2)[C@]24C5=C(N=C(O5)[C@H](C(C)C)NC1=O)c1nc(Cl)c(o1)-c1c(Cl)[nH]c5cccc(c15)-c1cccc2c1N[C@H]4O3`, the GI50 is under 0.001 µM with SF-295 CNS; under 0.001 µM with SNB-19 CNS; under 0.001 µM in the assay on SF-268 CNS; under 0.001 µM with OVCAR-3 ovarian; under 0.001 µM with PC-3 prostate; 0.00468 µM in the assay on CAKI-1 renal. For the same molecule, the GI50 with DU-145 prostate is under 0.001 µM. Moreover, the TGI in the assay with SF-295 CNS was 3.87 µM; with SF-268 CNS it was 7.32 µM; in the assay with OVCAR-4 ovarian, over 10 µM; in the assay on OVCAR-3 ovarian, 0.00747 µM; in the assay with PC-3 prostate, over 10 µM; in the assay with CAKI-1 renal, 3.29 µM. This molecule also came in with a TGI in the assay on DU-145 prostate of 0.748 µM.

For the molecule `C=CC1=C(C)C(Cc2[nH]c(/C=c3\[nH]/c(=C/C4=NC(=O)C(C)/C4=C\C)c(C)c3CCC(=O)O)c(CCC(=O)OC)c2C)NC1=O` (stereo unspecified), the GI50 in the assay with SF-295 CNS is 37.8 µM; in the assay on SF-268 CNS it was 21.2 µM; in the assay with OVCAR-3 ovarian, 20.1 µM; with PC-3 prostate, 32.9 µM; in the assay with SK-MEL-2 melanoma it was 20.1 µM; in the assay with CAKI-1 renal, 46.3 µM. For the same molecule, the results for the GI50 in the assay on LOX IMVI melanoma and in the assay with DU-145 prostate were 18.6 µM and 62.6 µM, respectively. The TGI with SF-295 CNS was over 100 µM; in the assay with SF-268 CNS, 59.5 µM; in the assay on OVCAR-3 ovarian, 39.4 µM; in the assay with PC-3 prostate, over 100 µM; with SK-MEL-2 melanoma, 39.4 µM; in the assay with CAKI-1 renal, over 100 µM. Moreover, the values for the TGI in the assay with LOX IMVI melanoma and with DU-145 prostate were 37.4 µM and over 100 µM, respectively.

Consider `CO[C@@]12[C@H](COC(N)=O)C3=C(C(=O)C(C)=C(N)C3=O)N1C[C@@H]1N[C@@H]12`, for which the GI50 was 4.65 µM with OVCAR-4 ovarian; 5.79 µM and 3.66 µM in the assay on OVCAR-3 ovarian; 2.65 µM and 4.99 µM in the assay on PC-3 prostate; 4.21 µM and 2.54 µM in the assay with SK-MEL-2 melanoma; 0.615 µM in the assay with LOX IMVI melanoma. The TGI in the assay on OVCAR-4 ovarian is 10.5 µM and 10.1 µM and 42.8 µM; in the assay with OVCAR-3 ovarian, 8.8 µM and 14.4 µM and 34.4 µM; in the assay on PC-3 prostate, 17.4 µM and 20 µM and 25.7 µM; in the assay on SK-MEL-2 melanoma, 4.96 µM and 7.5 µM and 6.61 µM; in the assay with CAKI-1 renal, 6.18 µM and 25 µM and 3.07 µM; in the assay on LOX IMVI melanoma, 4.26 µM and 3.47 µM.

Consider `C=C(C)C1CCC2(CO)C(O)CC3(C)C(CCC4C5(C)CCC(O)C(C)(C)C5CCC43C)C12` (stereo unspecified), for which the TGI in the assay with SF-295 CNS was 10.3 µM; in the assay with SNB-19 CNS, 84.1 µM; in the assay with SF-268 CNS, over 100 µM; in the assay on OVCAR-3 ovarian, 29.2 µM; with PC-3 prostate, 60.3 µM; in the assay with SK-MEL-2 melanoma, 32 µM. Besides, the TGI was over 100 µM with CAKI-1 renal, 24.2 µM with LOX IMVI melanoma and over 100 µM in the assay on DU-145 prostate.

As for `NCCCn1c2c(c3ccc([N+](=O)[O-])cc3c1=O)C(=O)c1cc(Cl)ccc1-2`, the GI50 in the assay with SF-295 CNS was under 0.01 µM; in the assay with SNB-19 CNS, under 0.01 µM; in the assay on SF-268 CNS it was under 0.01 µM; in the assay on PC-3 prostate it was under 0.0163 µM; in the assay with SK-MEL-2 melanoma, 0.113 µM; in the assay on CAKI-1 renal, under 0.01 µM. In addition, the GI50 with LOX IMVI melanoma and with DU-145 prostate was under 0.01 µM each time. Further, the TGI in the assay with SF-295 CNS is 1.37 µM; in the assay on SNB-19 CNS it was 0.227 µM; in the assay with SF-268 CNS it was 0.391 µM; in the assay on PC-3 prostate it was 0.381 µM; in the assay on SK-MEL-2 melanoma, 0.275 µM; in the assay with CAKI-1 renal, 0.317 µM. For the same molecule, the TGI in the assay on LOX IMVI melanoma came out at 0.117 µM; in the assay on DU-145 prostate it was 0.115 µM.

Turning to `CCN1CCN(c2nc(C)cc(N(CCCNc3ccnc4cc(Cl)ccc34)Cc3ccco3)n2)CC1`, the GI50 in the assay on SF-295 CNS is 1.81 µM; in the assay with SNB-19 CNS it was 4.78 µM; with SF-268 CNS, 4.31 µM; in the assay with OVCAR-4 ovarian, 3.99 µM; in the assay on OVCAR-3 ovarian, 4.29 µM; in the assay on PC-3 prostate it was 6.87 µM. Besides, the GI50 is 1.94 µM in the assay on SK-MEL-2 melanoma, 1.76 µM with LOX IMVI melanoma and 5.89 µM in the assay with DU-145 prostate. Besides, the TGI with SF-295 CNS is 3.63 µM; in the assay with SNB-19 CNS, 17.5 µM; with SF-268 CNS it was 20.6 µM; with OVCAR-4 ovarian it was 20.7 µM; with OVCAR-3 ovarian, 20.3 µM; in the assay on PC-3 prostate, 22 µM. For the same molecule, the TGI was determined as 3.92 µM in the assay with SK-MEL-2 melanoma, 3.75 µM in the assay with LOX IMVI melanoma and 19.7 µM with DU-145 prostate.

Turning to `C=C(C)C(=O)N1c2ccc(OC)cc2CC1C(=O)OCC` (stereo unspecified), the TGI in the assay on SF-295 CNS, with SNB-19 CNS, with SF-268 CNS, in the assay with OVCAR-4 ovarian, in the assay with OVCAR-3 ovarian and with PC-3 prostate was over 100 µM each time. Besides, the TGI in the assay with SK-MEL-2 melanoma, with CAKI-1 renal and with DU-145 prostate was over 100 µM in each case.

Take `C#CCOc1cccc(Nc2ncnc3c2ncn3C2CCN(C(=O)CCl)C2)c1` (stereo unspecified): the GI50 in the assay with SF-295 CNS is over 100 µM; in the assay on SNB-19 CNS, 35.1 µM; with SF-268 CNS, 17.7 µM; in the assay on OVCAR-4 ovarian, 19.4 µM; in the assay on OVCAR-3 ovarian, 17.2 µM; in the assay on PC-3 prostate it was 22.6 µM. Further, the GI50 with SK-MEL-2 melanoma is 25.7 µM; with CAKI-1 renal it was 16.8 µM; in the assay on DU-145 prostate, 19.8 µM. The TGI is over 100 µM in the assay with SF-295 CNS; over 100 µM in the assay on SNB-19 CNS; 38.2 µM in the assay on SF-268 CNS; 45 µM with OVCAR-4 ovarian; 31.4 µM with OVCAR-3 ovarian; 53 µM in the assay on PC-3 prostate. The figures for the TGI with SK-MEL-2 melanoma, with CAKI-1 renal and in the assay on DU-145 prostate were 94.9 µM, 30.7 µM and 37.5 µM, respectively.

For `O=C1C(Cl)=C(Nc2ccc3c(c2NC2=C(Cl)C(=O)c4ccccc4C2=O)C(=O)c2ccccc2C3=O)C(=O)c2ccccc21`, the GI50 in the assay with SF-295 CNS was 1.38 µM; in the assay on SNB-19 CNS, 2.74 µM; with SF-268 CNS it was 2.91 µM; in the assay with OVCAR-4 ovarian, 1.42 µM; with OVCAR-3 ovarian it was 1.78 µM; with PC-3 prostate, 1.92 µM. The GI50 in the assay with SK-MEL-2 melanoma is 1.82 µM; in the assay on LOX IMVI melanoma, 0.872 µM; in the assay on DU-145 prostate it was 1.57 µM. The TGI in the assay on SF-295 CNS stood at 3.2 µM; in the assay on SNB-19 CNS, 10.3 µM; with SF-268 CNS it was 12.9 µM; in the assay with OVCAR-4 ovarian it was 2.99 µM; in the assay on OVCAR-3 ovarian, 7.03 µM; in the assay with PC-3 prostate, 12.5 µM. The TGI with SK-MEL-2 melanoma turned out to be 6.33 µM; in the assay on LOX IMVI melanoma it was 10.4 µM; in the assay with DU-145 prostate, 2.97 µM.

Turning to `Cc1cc(Cl)ccc1Nc1nc(C(F)(F)F)ccc1C(=O)N/N=C/c1ccc(N(C)C)cc1`, the GI50 is 1.42 µM with SF-295 CNS; 3.08 µM in the assay on SNB-19 CNS; 1.37 µM in the assay with SF-268 CNS; 0.563 µM in the assay with OVCAR-3 ovarian; 0.404 µM in the assay on CAKI-1 renal; 0.7 µM with LOX IMVI melanoma. For the same molecule, in the assay on DU-145 prostate, the GI50 is 0.915 µM. For the same molecule, the TGI is 4.92 µM with SF-295 CNS; over 100 µM in the assay on SNB-19 CNS; over 100 µM in the assay with SF-268 CNS; over 100 µM in the assay on OVCAR-3 ovarian; 8.52 µM in the assay on CAKI-1 renal; over 100 µM in the assay on LOX IMVI melanoma. This molecule gave a TGI in the assay on DU-145 prostate of 8.86 µM.

Consider `CCOC(CN(C)C(=O)OCC(Cl)(Cl)Cl)OCC`, for which the TGI in the assay on SF-295 CNS, in the assay with SNB-19 CNS, in the assay on SF-268 CNS, in the assay on OVCAR-4 ovarian, with OVCAR-3 ovarian and in the assay on PC-3 prostate was over 100 µM each time. The TGI in the assay on CAKI-1 renal, in the assay on LOX IMVI melanoma and with DU-145 prostate was over 100 µM throughout.

As for `CN(C)CCN1C(=O)c2cccc3c(-c4ccc5ncn(C6CCCCC6)c5c4)ccc(c23)C1=O`, the GI50 in the assay with SF-295 CNS was 1.54 µM; with SNB-19 CNS it was 1.88 µM; with SF-268 CNS, 2.73 µM; with OVCAR-4 ovarian, 2.11 µM; in the assay on OVCAR-3 ovarian, 2.28 µM; in the assay on PC-3 prostate, 1.63 µM. Also, the GI50 in the assay on SK-MEL-2 melanoma is 2.19 µM; in the assay with CAKI-1 renal it was 1.27 µM; with DU-145 prostate, 3.14 µM. Further, the TGI with SF-295 CNS was 5.93 µM; in the assay with SNB-19 CNS it was 20.1 µM; in the assay on SF-268 CNS it was 12.8 µM; with OVCAR-4 ovarian, 18.1 µM; in the assay on OVCAR-3 ovarian, 8.78 µM; with PC-3 prostate, 5.75 µM. Further, the TGI was determined as 7.32 µM in the assay on SK-MEL-2 melanoma, 6.67 µM with CAKI-1 renal and 13.5 µM with DU-145 prostate.

For `CCCCc1oc2ccccc2c1C(=O)c1cc(I)c(OCCN(CC)CC)c(I)c1`, the GI50 is 1.88 µM with SF-295 CNS; 2.04 µM in the assay with SNB-19 CNS; 3.28 µM in the assay with SF-268 CNS; 3.47 µM in the assay with OVCAR-4 ovarian; 3.69 µM with OVCAR-3 ovarian; 1.95 µM with PC-3 prostate. For the same molecule, the GI50 is 2.51 µM in the assay on CAKI-1 renal, 1.49 µM in the assay on LOX IMVI melanoma and 5.28 µM in the assay with DU-145 prostate. For the same molecule, the TGI was 3.81 µM and 8.35 µM in the assay with SF-295 CNS; 5.35 µM and 18.7 µM in the assay on SNB-19 CNS; 14 µM and 38.9 µM with SF-268 CNS; 16.2 µM and 20.9 µM with OVCAR-4 ovarian; 14.7 µM and 16.9 µM in the assay with OVCAR-3 ovarian; 8.91 µM in the assay on PC-3 prostate. Besides, the TGI with CAKI-1 renal is 10.7 µM and 15.5 µM; with LOX IMVI melanoma, 2.82 µM and 7.86 µM; in the assay with DU-145 prostate, 17.8 µM.

In the case of `ClC1=C(Cl)C(Cl)=C(Cl)C1=Cc1ccc(Cl)cc1Cl`, the GI50 is 0.733 µM in the assay on SF-295 CNS; 0.811 µM in the assay with SNB-19 CNS; 0.308 µM with SF-268 CNS; 0.53 µM with OVCAR-4 ovarian; 0.274 µM in the assay on OVCAR-3 ovarian; 0.393 µM with PC-3 prostate. The GI50 was 1.51 µM in the assay with SK-MEL-2 melanoma, 0.184 µM in the assay on LOX IMVI melanoma and 0.718 µM with DU-145 prostate. Besides, the TGI with SF-295 CNS was determined as 3.08 µM; with SNB-19 CNS, 2.93 µM; in the assay on SF-268 CNS, 1.43 µM; with OVCAR-4 ovarian, 5.89 µM; in the assay on OVCAR-3 ovarian, 0.857 µM; in the assay on PC-3 prostate, 1.64 µM. Further, the TGI in the assay on SK-MEL-2 melanoma was 4.49 µM; in the assay with LOX IMVI melanoma, 0.384 µM; in the assay on DU-145 prostate it was 3.52 µM.

Source of the values: PubChem BioAssay (NCI).
